Data from publication PMC9977398, “Next-generation membrane-active glycopeptide antibiotics that also inhibit bacterial cell division” (Chemical Science, 2023).
≈ marks a conversion by molar mass, not a printed value.

Assays:
[1] = system: GFP-FtsI expressing E. coli; design: method as in PMID 19995973; conditions: known inhibitor of FtsI; 22 μM in Fig. 5C; cited from earlier work
[2] = system: VRE (VanA phenotype); design: method as in PMID 27663982, PMID 24846441, PMID 14972384; conditions: cited from earlier work
[3] = system: carbapenem-resistant A. baumannii; assay: Murine chronic burn-wound infection model; assay type: in vivo, mice; conditions: 30 mg kg^−1 topically for 5 days; untreated 8 log CFU g^−1
Procedure: Fig. 6 (A) Propensity of vancomycin and VanQAmC10 to induce resistance in MRSA upon serial exposure to sub-MIC concentrations; (B) (i) experimental design for in vivo efficacy study in a murine thigh infection model, (ii) in vivo efficacy of VanQAmC10 and vancomycin against the multidrug-resistant methicillin-resistant S. aureus (MRSA) (n = 3/dose). Antibiotics were administered intraperitoneally twice at 12 h intervals at a dose of 12 mg kg^−1. (C) (i) Experimental design for in vivo efficacy study in murine burn wound infection model, (ii) in vivo efficacy of VanQAmC10 and colistin against the carbapenem-resistant A. baumannii (n = 5/dose, 1 mouse died in untreated control). VanQAmC10 and colistin were treated topically at 30 mg kg^−1 for 5 days (‘***’ indicates p < 0.0001, ‘**’ indicates p < 0.001, ‘*’ p < 0.05, p = 0.08 (n.s.) for VanQAmC10 with respect to vancomycin).
Further, the efficacy of VanQAmC10 (8) was tested in a chronic burn-wound infection model of A. baumannii.[40] Chronic burn wounds on the back of mice were infected with A. baumannii. […] Infected mice were treated with 30 mg kg^−1 of VanQAmC10 and colistin for five days consecutively. The bacterial load in the untreated group increased to 8 log CFU g^−1 six days post-infection. […] The use of colistin is however limited due to its toxicity and bacteria easily develop resistance to it. […]

## CC1=C(C(=O)O)N2C(=O)[C@@H](NC(=O)[C@H](N)c3ccccc3)[C@H]2SC1 [Cephalexin]
[1]
  phenotype and localization of GFP-FtsI: filamentous phenotype with mislocalized GFP-FtsI protein

## CCCCCCCCCCNCCN[C@@]1(C)C[C@H](O[C@H]2[C@H](Oc3c4cc5cc3Oc3ccc(cc3Cl)[C@@H](O)[C@@H](NC(=O)[C@@H](CC(C)C)NC)C(=O)N[C@@H](CC(N)=O)C(=O)N[C@H]5C(=O)N[C@H]3C(=O)N[C@H](C(=O)N[C@H](C(=O)O)c5cc(O)c(CNCP(=O)(O)O)c(O)c5-c5cc3ccc5O)[C@H](O)c3ccc(c(Cl)c3)O4)O[C@H](CO)[C@@H](O)[C@@H]2O)O[C@@H](C)[C@H]1O [telavancin]
[2]
  MIC against VRE (VanA phenotype): 4 µM (≈ 7.02 µg/mL)

## colistin [reference compound]
[3]
  lower bacterial load as compared to the untreated mice: 4.8 log CFU g^−1
